“And” between values parts separate entries of the source, which are not always exact repeats. Identical values can stand only once.

Data on four compounds can be found in PubChem BioAssay AID1918943 (Molecular Pharmacology Branch, DTP, NCI, 2023).

This assay concerns 855422-203-R-J1-PDC complex spheroid viability. Briefly: Anticancer human tumor 855422-203-R-J1-PDC patient-derived bladder carcinoma cell line growth inhibition. The following applies: for viability, T/C: stronger effect = lower value. An excerpt: Multicellular complex tumor spheroid response to LSD1 Inhibitor Iadademstat in combination with a variety of drugs and investigational agents in selected tumor cell lines
The current study was undertaken to assess response to LSD1 inhibitors in combination with standard-of-care drugs and investigational agents in solid tumor complex spheroid models as well as in the K-562 leukemia. Complex spheroids include a stromal component modeled by human endothelial cells (HUVEC) and fibroblasts modeled by human mesenchymal stem cells (MSCs). The concentration ranges selected for each drug and investigational agent were based upon clinically achievable concentrations if the clinical Cmax of the agent was known.
Compounds. The drugs and investigational agents used in this study are listed on Table 1. All of the agents used, including staurosporine (NSC755774) and gemcitabine (NSC613327), were obtained from the Developmental Therapeutics Program, NCI. FDA-approved anticancer drugs are available from the NCI at http://dtp.nci.nih.gov/branches/dscb/oncology_drugset_explanation.html. Drugs and investigational agents were >95% pure by proton nuclear magnetic resonance (NMR) and liquid chromatography/mass spectrometry (LC/MS). Stock solutions were prepared at 400x in DMSO, stored at -70 degrees C, and diluted in fresh medium prior to their use. The final concentration of DMSO in cell culture wells never exceeded 0.25% (v/v). The FDA-approved anticancer drug set is available from the Developmental Therapeutics Program at https://dtp.cancer.gov/organization/dscb/obtaining/available_plates.htm. All drugs and investigational agents were tested over a range starting from a high concentration at or near the clinical Cmax and decreasing in half-log increments. If the clinical Cmax for an agent had not been determined, the highest concentration tested was 10 microM.
Cell Lines. The patient-derived cancer cell (PDC) lines: 292921-168-R-J2-PDC, K24384-001-R-PDC, and 521955-158-R2-J5-PDC pancreatic carcinomas, 556581-035-R-J1 ovarian carcinoma, 324938-238-R-J1-PDC, 855422-203-R-J1-PDC and 883617-216-R-J1-PDC urothelial bladder carcinomas, 743489-274-T-PDC renal cell carcinoma, 138582-R-J1 Merkel cell tumor, K60290-347-R-J1 and K57222-313-R-J1-PDC glioblastomas, 653999-131-R-J2-PDC, LG0703-F948-PDC, and 349418-098-R-PDC non-small cell lung carcinomas, 885512-296-R-J2-PDC, 171881-019-R-J1-PDC breast carcinomas and 186277-243-T-J2-PDC and 233499-124-R-J2-PDC colon carcinomas were obtained from the NCI Patient-Derived Models Repository (PDMR, https://pdmr.cancer.gov). The established cell lines NCI/ADR-RES (RRID:CVCL_14520 and OVCAR-5 (RRID:CVCL_1628) ovarian carcinomas, 786-O (RRID:CVCL_1051) and A498 (RRID:CVCL_A498) renal cell carcinoma, NCI-H211 (ATCC, cat. CRL-5824; RRID:CVCL_1529), NCI-H196 (ATCC, cat. CRL-5823, RRID:CVCL_1509), SW 1271 (ATCC, cat. CRL-2177, RRID:CVCL_1716) and NCI-H1876 (ATCC, cat. CRL-5902, RRID:CVCL_1503) small cell lung carcinomas, MDA-MB-231 (RRID:CVCL_0062) and MDA-MB-468 (RRID:CVCL_0419)breast carcinomas (10-12). Pooled donor human umbilical vein endothelial cells (HUVEC, Lonza, cat. CC-2519) and human mesenchymal stem cells (hMSC, Lonza, cat. PT-2501) were purchased from Lonza (Walkersville, MD).
Cell Culture. All cells were maintained in an incubator at 37 degrees C and 5% CO2 with 95% humidity. The PDC lines were cultured according to standard operating procedures established by the NCI PDMR (https://pdmr.cancer.gov). Briefly all PDCs were thawed and cultured in Matrigel-coated flasks prepared with a working solution of 1X Ham's F-12 nutrient mix, without supplementation (Invitrogen, Waltham, MA, cat. 11765054), 100 U/mL penicillin-streptomycin (Invitrogen, cat. 15140122), and 2.5% Matrigel (Corning Inc., Corning, NY, cat. 354248) for the first three passages. […]
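Further: drug exposure lasted 7 days starting on day 3 after seeding.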
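Wherever viability, T/C is given: luminescence viability as percent of DMSO vehicle wells = 100%.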

As usually defined, the IC50 is the midpoint of a concentration-inhibition curve. As usually defined, the viability, T/C is the result in the treated group divided by that in the control group, in per cent. As for `NS(=O)(=O)OCC1CC(n2ccc3c(NC4CCc5ccccc54)ncnc32)CC1O` (stereo unspecified) + NC1CC1c1ccc(-c2cccc(O)c2)cc1, the half-maximal inhibitory concentration (IC50) (curve of first compound, second compound 0.1 µM) turned out to be 802 nM; the IC50 (curve of first compound, second compound 0.316 µM) was 848 nM; the IC50 (curve of first compound, second compound 1 µM) came to 1140 nM; the IC50 (curve of first compound, second compound 3.16 µM) was determined as 769 nM; the half-inhibitory concentration (IC50) (curve of first compound, second compound 10 µM) was determined as 532 nM. Also, the viability, T/C (second compound 0.1 µM, first compound 0.00949 µM) is 102%; the viability, T/C (second compound 0.1 µM, first compound 0.03 µM) is 112%; the viability, T/C (second compound 0.1 µM, first compound 0.0949 µM) was 115%; the viability, T/C (second compound 0.1 µM, first compound 0.3 µM) was 105%; the viability, T/C (second compound 0.1 µM, first compound 0.949 µM) was 40.5%; the viability, T/C (second compound 0.1 µM, first compound 3 µM) was 12.2%. Also, the viability, T/C reads like this: (second compound 0.316 µM, first compound 0.00949 µM) 100%; (second compound 0.316 µM, first compound 0.03 µM) 113%; (second compound 0.316 µM, first compound 0.0949 µM) 114%; (second compound 0.316 µM, first compound 0.3 µM) 105%; (second compound 0.316 µM, first compound 0.949 µM) 44.1%; (second compound 0.316 µM, first compound 3 µM) 13.4%. Also, the viability, T/C is 108% (second compound 1 µM, first compound 0.00949 µM); 115% (second compound 1 µM, first compound 0.03 µM); 98.7% (second compound 1 µM, first compound 0.0949 µM); 102% (second compound 1 µM, first compound 0.3 µM); 56.8% (second compound 1 µM, first compound 0.949 µM); 13.9% (second compound 1 µM, first compound 3 µM). Moreover, the viability, T/C (second compound 3.16 µM, first compound 0.00949 µM) is 99.7%; the viability, T/C (second compound 3.16 µM, first compound 0.03 µM) was 114%; the viability, T/C (second compound 3.16 µM, first compound 0.0949 µM) is 102%; the viability, T/C (second compound 3.16 µM, first compound 0.3 µM) is 105%; the viability, T/C (second compound 3.16 µM, first compound 0.949 µM) is 37.7%; the viability, T/C (second compound 3.16 µM, first compound 3 µM) was 14.1%. The viability, T/C was 95.4% (second compound 10 µM, first compound 0.00949 µM); 99.5% (second compound 10 µM, first compound 0.03 µM); 93.8% (second compound 10 µM, first compound 0.0949 µM); 69% (second compound 10 µM, first compound 0.3 µM); 30.5% (second compound 10 µM, first compound 0.949 µM); 10.9% (second compound 10 µM, first compound 3 µM).

As to `Nc1ncn(C2CC(O)C(CO)O2)c(=O)n1` (stereo unspecified), the viability, T/C is 101% and 96.5% (compound 0.00316 µM); 92.3% and 88.8% (compound 0.01 µM); 81.1% and 89% (compound 0.0316 µM); 86.6% and 94% (compound 0.1 µM); 80.8% and 94.5% (compound 0.316 µM); 78% and 87% (compound 1 µM). For the same compound, the IC50 (curve of compound) was above 1000 nM.

With `Nc1ccccc1NC(=O)c1ccc(CNC(=O)OCc2cccnc2)cc1`, the viability, T/C (compound 0.00949 µM) was 92.6% and 94.4%; the viability, T/C (compound 0.03 µM) is 100% and 97%; the viability, T/C (compound 0.0949 µM) is 106% and 105%; the viability, T/C (compound 0.3 µM) is 90.8% and 101%; the viability, T/C (compound 0.949 µM) was 75.4% and 64%; the viability, T/C (compound 3 µM) was 13.4% and 13.2%. Moreover, the IC50 (curve of compound) was 1510 nM and 1300 nM.

Turning to `CC1COCCN1c1cc(C2(S(C)(=N)=O)CC2)nc(-c2ccnc3[nH]ccc23)n1` (stereo unspecified), the viability, T/C is, setting by setting: (compound 0.0316 µM) 108% and 93.8%; (compound 0.1 µM) 99.9% and 93.1%; (compound 0.316 µM) 101% and 94.4%; (compound 1 µM) 84.9% and 85.9%; (compound 3.16 µM) 45% and 36.6%; (compound 10 µM) 40.7% and 35%. Where the note is “curve of compound”, the IC50 is 2760 nM and 2310 nM.
